Source: patent US10980781B2, “6-amino-2,4-dihydropyrano [2,3-c] pyrazoles and methods of use” (Purdue Research Foundation, priority 2017, dated 2021)

Biological target: USP7 (Homo sapiens (Human), UniProt Q93009)
Test: USP7 inhibition assay with Ub-Rho 110 substrate (fluorescence progress curves)
Type: biochemical
Settings: for inhibition at 100 µM: 100 μM compound, 1 nM USP7, 200 nM Ub-Rho 110, 3% DMSO, triplicate; for IC50: 11 compound concentrations, two-fold serial dilutions
Experimental: Each assay was measured in triplicate. […] All reactions contained a final concentration of 3% DMSO. […] The percent inhibition was calculated using Equation (1).
The assay design was identical to as described above. The percent inhibition was calculated using Equation 1 and fit to Equation 2 by use of the Enzyme Kinetics Module of Sigma Plot (v13:Systat Software Inc.), to determine the IC50 value.

Chain of USP7 (Q93009 whole entry): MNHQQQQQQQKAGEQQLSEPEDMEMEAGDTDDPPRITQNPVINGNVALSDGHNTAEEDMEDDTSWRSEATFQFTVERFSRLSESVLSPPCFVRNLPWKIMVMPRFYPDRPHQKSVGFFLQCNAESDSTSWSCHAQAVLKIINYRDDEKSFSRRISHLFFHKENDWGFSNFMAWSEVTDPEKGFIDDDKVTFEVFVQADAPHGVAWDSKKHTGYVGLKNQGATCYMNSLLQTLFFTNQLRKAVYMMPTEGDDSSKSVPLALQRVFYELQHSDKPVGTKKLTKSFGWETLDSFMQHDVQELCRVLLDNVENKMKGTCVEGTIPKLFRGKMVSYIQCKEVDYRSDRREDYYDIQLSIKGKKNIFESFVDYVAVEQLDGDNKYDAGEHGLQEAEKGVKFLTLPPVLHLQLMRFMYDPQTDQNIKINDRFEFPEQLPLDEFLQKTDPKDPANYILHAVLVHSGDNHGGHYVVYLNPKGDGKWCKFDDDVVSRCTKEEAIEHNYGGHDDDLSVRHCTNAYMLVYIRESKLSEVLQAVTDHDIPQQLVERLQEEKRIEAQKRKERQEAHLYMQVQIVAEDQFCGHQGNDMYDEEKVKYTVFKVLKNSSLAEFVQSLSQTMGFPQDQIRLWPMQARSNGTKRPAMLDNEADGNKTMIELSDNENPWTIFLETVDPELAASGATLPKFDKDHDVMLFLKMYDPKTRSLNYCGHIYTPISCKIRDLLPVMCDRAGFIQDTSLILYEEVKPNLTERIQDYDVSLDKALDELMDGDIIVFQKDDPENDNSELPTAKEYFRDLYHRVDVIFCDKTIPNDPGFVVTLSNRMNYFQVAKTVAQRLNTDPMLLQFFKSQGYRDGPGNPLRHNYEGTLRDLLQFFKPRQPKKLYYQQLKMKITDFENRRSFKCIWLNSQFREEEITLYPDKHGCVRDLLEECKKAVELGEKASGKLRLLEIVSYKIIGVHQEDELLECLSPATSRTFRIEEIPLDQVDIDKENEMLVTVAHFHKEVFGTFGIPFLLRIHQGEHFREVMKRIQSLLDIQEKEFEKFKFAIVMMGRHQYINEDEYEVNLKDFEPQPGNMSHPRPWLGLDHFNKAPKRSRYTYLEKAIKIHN

| SMILES | inhibition at 100 µM [%] | IC50 (1 nM USP7, 200 nM Ub-Rho 110) [µM] | inhibition at 150 µM (tested at 150 μM compound, 1 nM USP7, 200 nM Ub-Rho 110) [%] |
| --- | --- | --- | --- |
| N#CC1=C(N)Oc2n[nH]c(-c3cccs3)c2C1c1ccc(N=[N+]=[N-])c(I)c1 (stereo not shown) [Compound 6p, 6-Amino-4-(4-azido-3-iodophenyl)-3-(thiophen-2-yl)-2,4-dihydropyrano[2,3-c]pyrazole-5-carbonitrile] | 62 ± 20 |  |  |
| COc1ccc(C2C(C#N)=C(N)Oc3n[nH]c(-c4ccccn4)c32)cc1Br (racemic) [Compound 7c, 6-Amino-4-(3-bromo-4-methoxyphenyl)-3-(pyridin-2-yl)-2,4-dihydropyrano [2,3-c]pyrazole-5-carbonitrile] | 85 ± 2 | 7.9 ± 0.4 |  |
| CNC1=C(C#N)C(c2ccc(OC)c(Br)c2)c2c(n[nH]c2-c2cccs2)O1 (stereo not shown) [Compound 13, 4-(3-Bromo-4-methoxyphenyl)-6-(methylamino)-3-(thiophen-2-yl)-2,4-dihydropyrano[2,3-c]pyrazole-5-carbonitrile] | 47 ± 1 |  |  |
| COc1ccc(C2C(C#N)=C(N)Oc3n[nH]c(-c4ccccn4)c32)cc1I (racemic) [Compound 7d, 6-Amino-4-(3-iodo-4-methoxyphenyl)-3-(pyridin-2-yl)-2,4-dihydropyrano [2,3-c]pyrazole-5-carbonitrile] |  | 4.4 | 89 ± 2 |
| N#CC1=C(N)Oc2n[nH]c(-c3cccs3)c2C1c1cccc(Br)c1 (stereo not shown) [Compound 6c, 6-Amino-4-(3-bromophenyl)-3-(thiophen-2-yl)-2,4-dihydropyrano[2,3-c]pyrazole-5-carbonitrile] | 0 |  |  |
| COc1ccc(C2C(C#N)=C(N)Oc3n[nH]c(-c4ccsc4)c32)cc1I (racemic) [Compound 7b, 6-Amino-4-(3-iodo-4-methoxyphenyl)-3-(thiophen-3-yl)-2,4-dihydropyrano [2,3-c]pyrazole-5-carbonitrile] | 71 ± 3 | 5.6 ± 0.7 |  |
| COc1ccc(C2C(C#N)=C(N)Oc3n[nH]c(-c4cc(C)sc4C)c32)cc1I (stereo not shown) [Compound 7o, 6-Amino-3-(2,5-dimethylthiophen-3-yl)-4-(3-iodo-4-methoxyphenyl)-2,4-dihydropyrano[2,3-c]pyrazole-5-carbonitrile] | 29 ± 6 |  |  |
